This note sets out measurements from patent US10701939B2, “Aqueous suspension agrochemical composition” (KUMIAI CHEMICAL INDUSTRY CO., LTD., priority 2015, dated 2020).

For this assay, the system named is wheat powdery mildew (Erysiphe graminis). As to the kind of experiment: Reference Example: efficacy reinforcement by adjuvant, control of wheat powdery mildew on potted wheat. The assay is classed as in vivo. The conditions noted are these: pyribencarb water-dispersible granules 30 g/ha, no adjuvant added (0 ppm); day 7 after inoculation. On the procedure: Pyribencarb (40 parts), sodium lignin sulfonate (5 parts), polyoxyethylene alkyl aryl ether (1 part), calcium carbonate (54 parts) and water (10 parts) were mixed, kneaded, extruded, and granulated, and the resultant granules were dried in a fluidized bed dryer to obtain water-dispersible granules. Thus obtained water-dispersible granules of pyribencarb were adjusted so as to have a predetermined concentration, and the adjuvant shown in the following Table 2 was added to the diluted solution to a concentration of 100 ppm to prepare a spray solution. In addition, a spray solution containing an adjuvant at a concentration of 100 ppm without containing water-dispersible granules of pyribencarb were separately prepared. Ten wheat seeds (variety: Norin No. 61) were sowed in a plastic cup having a diameter of 5.5 cm, and after grown for 7 days in a greenhouse, 25 ml/m^2 (30 g of pyribencarb per 1 ha) was sprayed onto the wheat at 1.5 to 2 leaf stage. After air-drying, conidia of wheat powdery mildew (Erysiphe graminis) were sprayed and inoculated, and the plant was placed in a greenhouse. On day 7 after inoculation, the disease onset area of the first leaves in the pot in the spray solution-treated region and the untreated region were indexed and investigated according to the criteria in Table 1 below. […]

Consider `COC(=O)NCc1cc(/C(C)=N/OCc2cccc(C)n2)ccc1Cl` [pyribencarb, methyl={2-chloro-5-[(E)-1-(6-methyl-2-pyridylmethoxyimino)ethyl]benzyl}carbamate], for which the “Control effect on wheat powdery mildew (control value)” value came out at 33.2%.
